According to US9198903B2, “Method of treating or preventing thrombosis in a patient with 5-HT2A receptor antagonist thromboserin” (Thromboserin Limited, priority 2007, dated 2015):

Assays:
[1] = in the presence of hypokalaemia; cited from earlier work
alpha-1 adrenergic = conditions: cited from earlier work
platelets = experiment: Platelet count (full blood count) in cross-over study; assay type: in vivo, human patients
Description: (§1) Study design: Randomised controlled double blind cross-over study: 2 weeks 5HT2A receptor antagonist (Thromboserin) (10 mg twice daily) or placebo, wash out period of 2 weeks and cross over to other arm for further two weeks. Side effects, and compliance documented in both groups. Blood sampling/Assays: Blood samples obtained at baseline, 2 weeks (the end of phase 1), 4 weeks (the end of phase 2), at 6 weeks (the end of phase 3) and 2 weeks after the completion of the study. The following assays were obtained. • Full blood count, urea, electrolytes, creatinine, liver function tests and glucose • Blood levels of Thromboserin • Bleeding time • Surface expression of the platelet activation markers P-selectin and fibrinogen. These were measured using whole blood flow cytometry. Measurement after incubation with agonists such as ADP was also performed in order to assess the platelet responsiveness to stimuli. • Ultegra Rapid Platelet Function Assay (RPFA). Methods: Venepuncture: Venous blood was collected into vacutainers by clean venepuncture with 19G butterfly and adaptor, using tourniquet to locate the vein only. The first 5 mL of blood was used for full blood count, and subsequent samples collected in order for the platelet tests and others. Clinical symptoms and signs were also recorded. The other observations were: routine full blood count by Clinical Haematology Laboratory, ARI, and U&Es, creatinine, Liver Function tests and blood glucose by Clinical Biochemistry Laboratory, ARI.

[2] = Skin bleeding time in randomised double blind cross-over study; assay type: in vivo, human patients; conditions: first 13 patients, drug 10 mg twice daily vs placebo cross-over courses
Source text: Objective: To evaluate whether inhibition platelets can be accompanied by no increase in bleeding time, by means of serotonin 5HT2A receptor antagonism. Study population: Patients with a history of intermittent claudication (IC) or coronary heart disease (CHD) recruited. There were 48 patients studied, all of whom were Caucasian, aged 69±6.6 years and of which 38 were male and 10 female. Patients with IC have clinical findings of peripheral vascular disease and an ABPI <0.9. Patients with CHD have chronic stable angina and angiographic evidence of coronary artery disease (stenosis of >70% in at least one major coronary artery). Study design: Randomised controlled double blind cross-over study: 2 weeks 5HT2A receptor antagonist (Thromboserin) (10 mg twice daily) or placebo, wash out period of 2 weeks and cross over to other arm for further two weeks. Side effects, and compliance documented in both groups. Skin bleeding time was performed, contra-laterally from venepuncture. A suitable area of forearm was shaved if necessary and cleaned with alcohol swab. A sphygmomanometer cuff was inflated on the upper arm to 40 mmHg. One incision was made with Surgicutt bleeding device ([…], Hertfordshire), and a stopwatch was started. […] The bleeding time was recorded to the nearest 30 seconds.

[3] = Clinical biochemistry (liver function tests, glucose, urea, creatinine, electrolytes) in cross-over study; assay type: in vivo, human patients; conditions: Thromboserin vs placebo
Description: as §1, with “Venepuncture:” for “Venepuncture: Venous blood was collected into vacutainers by clean venepuncture with 19G butterfly and adaptor, using tourniquet to locate the vein only. The first 5 mL of blood was used for full blood count, and subsequent samples collected in order for the platelet tests and others.”

| Probability of no Difference: Platelet count (platelets; Thromboserin 10 mg twice daily 2 weeks vs placebo, Wilcoxon) | Probability of no Difference: Platelet count over 6 weeks (platelets; Thromboserin vs placebo, Repeated measures ANOVA) | Probability of no Difference: Platelets, excluding 4 patients With abnormal count (platelets; Thromboserin vs placebo, Wilcoxon) | Change of bleeding time (in words) [2] | Probability of no Difference: Alanine amino transferase ([3]; Wilcoxon) | Probability of no Difference: Gamma GT ([3]; Wilcoxon) | Probability of no Difference: Gamma GT, In patients with abnormal values ([3]; Wilcoxon) | Probability of no Difference: Alkaline phosphatase ([3]; paired t test) | SMILES | Pro-arrhythmic properties (in words) [1] | Alpha-1 adrenergic activity (in words) (alpha-1 adrenergic) |
| --- | --- | --- | --- | --- | --- | --- | --- | --- | --- | --- |
|  |  |  |  |  |  |  |  | O=C(c1ccc(F)cc1)C1CCN(CCn2c(=O)[nH]c3ccccc3c2=O)CC1 [Ketanserin] | pro-arrhythmic properties | alpha-1 adrenergic antagonistic properties |
| 0.0416 | 0.0233 | 0.0214 | no significant rise in bleeding time | 0.0021 | 0.0216 | 0.0266 | 0.0034 | CN(C)C(C)(C)CSc1nc2ccccc2cc1-c1ccccc1.Cl [Thromboserin] |  |  |
